The source of these data is patent US12396461B2, “Functional peptides having antimicrobial activity against phytopathogenic microorganisms” (TOYOTA JIDOSHA KABUSHIKI KAISHA, priority 2019, dated 2025).

The subject of one assay is Botrytis cinerea. Format: cell-based. On the set-up: key to Plate antimicrobial activity test Botrytis cinerea, level: a case where hyphae extended to the entire well and no antimicrobial activity was found is defined as “level 0,”; a case where hyphae extended to less than a half of the well and thus the peptide inhibited the growth of the hyphae is defined as “level 1,”; a case where ungerminated spores were present and the peptide partially inhibited the germination is defined as “level 2,”; a case where all spores were ungerminated and the peptide completely inhibited the germination is defined as “level 3.”. Conditions: 25° C. for 1 day or 2 days, microscopic observation.

For a further assay, the system named is Fusarium oxysporum. Format: cell-based. On the set-up: key to Plate antimicrobial activity test Fusarium oxysporum, level: a case where hyphae extended to the entire well and no antimicrobial activity was found is defined as “level 0,”; a case where hyphae extended to less than a half of the well and thus the peptide inhibited the growth of the hyphae is defined as “level 1,”; a case where ungerminated spores were present and the peptide partially inhibited the germination is defined as “level 2,”; a case where all spores were ungerminated and the peptide completely inhibited the germination is defined as “level 3.”.

A further assay deals with Pyricularia oryzae. Format: cell-based. Conditions: 25° C. for 1 day or 2 days, microscopic observation. Details: key to Plate antimicrobial activity test Pyricularia oryzae, level: a case where hyphae extended to the entire well and no antimicrobial activity was found is defined as “level 0,”; a case where hyphae extended to less than a half of the well and thus the peptide inhibited the growth of the hyphae is defined as “level 1,”; a case where ungerminated spores were present and the peptide partially inhibited the germination is defined as “level 2,”; a case where all spores were ungerminated and the peptide completely inhibited the germination is defined as “level 3.”.

The subject of assay [1] is Colletotrichum destructivum. Kind of assay: Colletotrichum destructivum leaf inoculation test (Chinese cabbage leaf). Type of assay: in vivo. Conditions: Chinese cabbage leaf, 25° C. for 4 days, lesions by visual inspection, symbols ◯/Δ/X not defined. The method, then: In the present example, a suspension comprising Colletotrichum destructivum and a peptide to be tested was dropped on a plant leaf, and lesions were then observed by visual inspection to evaluate the antimicrobial activity of the tested peptide. First, the pores of Colletotrichum destructivum were suspended in water to result in a spore concentration of 5×10^5 spores/ml, so as to prepare a water suspension of spores. Subsequently, a peptide to be tested (TsORF6-1) was added to the water suspension of spores, so that the final concentration of the peptide to be tested became 0 μM, 1 μM, 10 μM or 100 μM. Thereafter, 10 μl each of the water suspension of spores containing the peptide to be tested was dropped on the front side and the back side of the leaf of Chinese cabbage (variety name: “Kigokoro 85”). In this condition, incubation was carried out at 25° C. for 4 days. Thereafter, the front and back sides of the leaf were observed by visual inspection.

The test system of assay [2] is plant pathogenic filamentous fungi. Format: cell-based. Conditions: Table 3.
The subject of assay [3] is Colletotrichum orbiculare. Type of assay: cell-based. On the set-up: key to Plate antimicrobial activity test Colletotrichum orbiculare, level: a case where hyphae extended to the entire well and no antimicrobial activity was found is defined as “level 0,”; a case where hyphae extended to less than a half of the well and thus the peptide inhibited the growth of the hyphae is defined as “level 1,”; a case where ungerminated spores were present and the peptide partially inhibited the germination is defined as “level 2,”; a case where all spores were ungerminated and the peptide completely inhibited the germination is defined as “level 3.”. As to conditions: 25° C. for 1 day or 2 days, microscopic observation.

For assay [4], the system named is Colletotrichum destructivum. Format: cell-based. Details: key to Plate antimicrobial activity test Colletotrichum destructivum, level: a case where hyphae extended to the entire well and no antimicrobial activity was found is defined as “level 0,”; a case where hyphae extended to less than a half of the well and thus the peptide inhibited the growth of the hyphae is defined as “level 1,”; a case where ungerminated spores were present and the peptide partially inhibited the germination is defined as “level 2,”; a case where all spores were ungerminated and the peptide completely inhibited the germination is defined as “level 3.”. As to conditions: 25° C. for 1 day or 2 days, microscopic observation.

Where “and” joins values, the source holds several entries; their conditions need not be identical. Identical values can stand only once. Like-named read-outs stand apart in the source and are kept apart here.

For the substance “MKVMI (listed as Solanum lycopersicum) [TsORF6-1-5aa-1, partial peptide of TsORF6-1, 5 amino acid residues]”, the “Plate antimicrobial activity test Botrytis cinerea, level” value amounted to 0 in the assay on Botrytis cinerea (peptide 1 μM), 0 in the assay on Botrytis cinerea (peptide 10 μM) and 1 in the assay on Botrytis cinerea (peptide 100 μM). For the same substance, the “Plate antimicrobial activity test Fusarium oxysporum, level” value in the assay on Fusarium oxysporum amounted to 0. Besides, the “Plate antimicrobial activity test Pyricularia oryzae, level” value in the assay on Pyricularia oryzae (peptide 1 μM) is given as 0; in the assay on Pyricularia oryzae (peptide 10 μM), 0; in the assay on Pyricularia oryzae (peptide 100 μM), 1. In assay [1] (peptide 100 μM), the “Leaf inoculation test Chinese cabbage/Colletotrichum destructivum” value is given as “◯”. Further, the “germination inhibitory activity against plant pathogenic filamentous fungi, result in words” value (“germination inhibitory activity” for short) in assay [2] is “extremely excellent germination inhibitory activity”. The “Plate antimicrobial activity test Colletotrichum orbiculare, level” value in assay [3] (peptide 1 μM) was 0; in assay [3] (peptide 10 μM), 0; in assay [3] (peptide 100 μM), 1. Also, the “Plate antimicrobial activity test Colletotrichum destructivum, level” value in assay [4] (peptide 1 μM) turned out to be 0; in assay [4] (peptide 10 μM), 0; in assay [4] (peptide 100 μM), 1.

As to “MKVMIVVK (listed as Solanum lycopersicum) [TsORF6-1-8aa-1, partial peptide of TsORF6-1, 8 amino acid residues]”, the “Plate antimicrobial activity test Botrytis cinerea, level” value in the assay on Botrytis cinerea (peptide 1 μM) stood at 0; in the assay with Botrytis cinerea (peptide 10 μM) it was 0; in the assay with Botrytis cinerea (peptide 100 μM), 2. The “Plate antimicrobial activity test Fusarium oxysporum, level” value in the assay with Fusarium oxysporum is 3 and 0. Besides, the results for the “Plate antimicrobial activity test Pyricularia oryzae, level” value with Pyricularia oryzae (peptide 1 μM), with Pyricularia oryzae (peptide 10 μM) and with Pyricularia oryzae (peptide 100 μM) were 0, 0 and 3, respectively. Further, the “Leaf inoculation test Chinese cabbage/Colletotrichum destructivum” value in assay [1] (peptide 10 μM) was “Δ”; in assay [1] (peptide 100 μM), “◯”. In addition, in assay [2], the “germination inhibitory activity” value is “extremely excellent germination inhibitory activity”. In addition, the “Plate antimicrobial activity test Colletotrichum orbiculare, level” value is on record as 0 in assay [3] (peptide 1 μM), 0 in assay [3] (peptide 10 μM) and 3 in assay [3] (peptide 100 μM). Further, the figures for the “Plate antimicrobial activity test Colletotrichum destructivum, level” value in assay [4] (peptide 1 μM), in assay [4] (peptide 10 μM) and in assay [4] (peptide 100 μM) were 0, 0 and 3, respectively.

On to “VAKMM (listed as Solanum lycopersicum) [TsORF6-1-5aa-16, partial peptide of TsORF6-1, 5 amino acid residues]”, for which the “Plate antimicrobial activity test Botrytis cinerea, level” value in the assay on Botrytis cinerea (peptide 1 μM), in the assay on Botrytis cinerea (peptide 10 μM) and with Botrytis cinerea (peptide 100 μM) was 0 each time. Besides, in the assay with Fusarium oxysporum, the “Plate antimicrobial activity test Fusarium oxysporum, level” value is reported as 0. For the same substance, the “Plate antimicrobial activity test Pyricularia oryzae, level” value with Pyricularia oryzae (peptide 1 μM), in the assay on Pyricularia oryzae (peptide 10 μM) and in the assay on Pyricularia oryzae (peptide 100 μM) was 0 throughout. In addition, the “Leaf inoculation test Chinese cabbage/Colletotrichum destructivum” value in assay [1] (peptide 100 μM) is listed as “◯”. The “germination inhibitory activity” value in assay [2] is reported as “extremely excellent germination inhibitory activity”. Also, the “Plate antimicrobial activity test Colletotrichum orbiculare, level” value in assay [3] (peptide 1 μM), in assay [3] (peptide 10 μM) and in assay [3] (peptide 100 μM) was 0 in each case. Besides, the “Plate antimicrobial activity test Colletotrichum destructivum, level” value in assay [4] (peptide 1 μM), in assay [4] (peptide 10 μM) and in assay [4] (peptide 100 μM) was 0 each time.

Take “VMIVV (listed as Solanum lycopersicum) [TsORF6-1-5aa-3, partial peptide of TsORF6-1, 5 amino acid residues]”: the “Plate antimicrobial activity test Botrytis cinerea, level” value in the assay with Botrytis cinerea (peptide 1 μM) is recorded as 0; in the assay with Botrytis cinerea (peptide 10 μM), 0; with Botrytis cinerea (peptide 100 μM) it was 1. For the same substance, the “Plate antimicrobial activity test Fusarium oxysporum, level” value with Fusarium oxysporum is recorded as 0. The “Plate antimicrobial activity test Pyricularia oryzae, level” value in the assay on Pyricularia oryzae (peptide 1 μM), in the assay on Pyricularia oryzae (peptide 10 μM) and with Pyricularia oryzae (peptide 100 μM) was 0 in each case. In addition, the “Leaf inoculation test Chinese cabbage/Colletotrichum destructivum” value in assay [1] (peptide 100 μM) was “◯”. Besides, the “germination inhibitory activity” value in assay [2] is listed as “extremely excellent germination inhibitory activity”. Further, the figures for the “Plate antimicrobial activity test Colletotrichum orbiculare, level” value in assay [3] (peptide 1 μM), in assay [3] (peptide 10 μM) and in assay [3] (peptide 100 μM) were 0, 0 and 1, respectively. Further, the “Plate antimicrobial activity test Colletotrichum destructivum, level” value in assay [4] (peptide 1 μM) was 0; in assay [4] (peptide 10 μM), 0; in assay [4] (peptide 100 μM), 1.

For the substance “VMIVVKTK (listed as Solanum lycopersicum) [TsORF6-1-8aa-3, partial peptide of TsORF6-1, 8 amino acid residues]”, the “Plate antimicrobial activity test Botrytis cinerea, level” value in the assay on Botrytis cinerea (peptide 1 μM) is given as 0; in the assay with Botrytis cinerea (peptide 10 μM), 0; in the assay with Botrytis cinerea (peptide 100 μM), 3. Besides, in the assay with Fusarium oxysporum, the “Plate antimicrobial activity test Fusarium oxysporum, level” value was 3 and 0. Moreover, the results for the “Plate antimicrobial activity test Pyricularia oryzae, level” value in the assay with Pyricularia oryzae (peptide 1 μM), with Pyricularia oryzae (peptide 10 μM) and with Pyricularia oryzae (peptide 100 μM) were 0, 0 and 3, respectively. Moreover, the “Leaf inoculation test Chinese cabbage/Colletotrichum destructivum” value in assay [1] (peptide 10 μM) and in assay [1] (peptide 100 μM) was “◯” throughout. For the same substance, the “germination inhibitory activity” value in assay [2] was “extremely excellent germination inhibitory activity”. Further, the results for the “Plate antimicrobial activity test Colletotrichum orbiculare, level” value in assay [3] (peptide 1 μM), in assay [3] (peptide 10 μM) and in assay [3] (peptide 100 μM) were 0, 0 and 3, respectively. The “Plate antimicrobial activity test Colletotrichum destructivum, level” value in assay [4] (peptide 1 μM) came out at 0; in assay [4] (peptide 10 μM), 0; in assay [4] (peptide 100 μM), 3.
